In patent US20100267561A1, “HERBICIDAL PYRIDAZINONE DERIVATIVES” (priority 2007, published 2010):

Experiments:
Type in all cases: in vivo
[1] = system: barnyardgrass (Echinochloa crus-galli); test: Test A pre-/postemergence plant response
How it was run: (§1)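 Seeds were planted in blended loam soil and sand, then treated preemergence by directed soil spray. At that time, emerged plants (one- to two-leaf, 2–10 cm) received postemergence applications of the same surfactant-containing formulation. Injury was assessed visually on a 0–100 scale after approximately 10 days.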

corn (Zea mays) = test: Test A pre-/postemergence plant response
How it was run: as §1

[2] = system: giant foxtail (Setaria faberi); test: Test A pre-/postemergence plant response
How it was run: as §1

[3] = system: large crabgrass (Digitaria sanguinalis); test: Test A pre-/postemergence plant response
How it was run: as §1

[4] = system: morningglory (Ipomoea coccinea); test: Test A pre-/postemergence plant response
How it was run: as §1

[5] = system: velvetleaf (Abutilon theophrasti); test: Test A pre-/postemergence plant response
How it was run: as §1

[6] = system: wheat (Triticum aestivum); test: Test B pre-/postemergence plant response; details: for Wheat plant response rating: 8 g ai/ha
How it was run: (§2)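 Seeds were sown and sprayed preemergence, while plants at 2 to 18 cm (1- to 4-leaf stage) got postemergence sprays. Compounds were formulated in a non-phytotoxic solvent mixture with surfactant. After 13 to 15 days in a greenhouse, injury was rated visually against untreated controls, 0 (no effect) to 100 (complete control).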

wild oat (Avena fatua) = test: Test B pre-/postemergence plant response; details: for Oat, Wild plant response rating: 8 g ai/ha
How it was run: as §2

[7] = system: yellow nutsedge (Cyperus esculentus); test: Test B pre-/postemergence plant response
How it was run: as §2

[8] = system: canarygrass (Phalaris minor); test: Test B postemergence plant response; details: for Plant response rating, Canarygrass: Postemergence
How it was run: (§3)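 Scoring: 0 means no effect and 100 complete control, judged by eye against controls after 13–15 days under greenhouse conditions following postemergence application at 2–18 cm plant height.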

[9] = system: chickweed (Stellaria media); test: Test B postemergence plant response; details: for Plant response rating, Chickweed: Postemergence
How it was run: as §3

[10] = system: windgrass (Apera spica-venti); test: Test B postemergence plant response; details: for Plant response rating, Windgrass: Postemergence
How it was run: as §3

[11] = system: winter barley (Hordeum vulgare); test: Test B postemergence plant response; details: for Plant response rating, Barley: Postemergence
How it was run: as §3

[12] = Postemergence, 125 g ai/ha, 0 to 100 scale, 0 no effect, 100 complete control
[13] = Postemergence, 500 g ai/ha, 0 to 100 scale, 0 no effect, 100 complete control
[14] = Preemergence, 125 g ai/ha, 0 to 100 scale (0 no effect, 100 complete control)
[15] = Preemergence, 500 g ai/ha, 0 to 100 scale (0 no effect, 100 complete control)
[16] = Postemergence, 31 g ai/ha, scale 0 to 100, 0 no effect, 100 complete control
[17] = Postemergence, 62 g ai/ha, scale 0 to 100
[18] = Postemergence, 125 g ai/ha, scale 0 to 100
[19] = Postemergence, 250 g ai/ha, scale 0 to 100
[20] = Preemergence, 31 g ai/ha, 0 to 100 scale, 0 no effect, 100 complete control
[21] = Preemergence, 62 g ai/ha, scale 0 to 100
[22] = Preemergence, 125 g ai/ha, scale 0 to 100
[23] = Preemergence, 250 g ai/ha, scale 0 to 100
[24] = 31 g ai/ha, scale 0 to 100, 0 no effect, 100 complete control
[25] = Postemergence, 16 g ai/ha, scale 0 to 100
[26] = Preemergence, 16 g ai/ha, scale 0 to 100 (0 no effect, 100 complete control)
[27] = 8 g ai/ha, postemergence, 0-100 scale

CCc1cc(-c2ccc(C(F)(F)F)cc2)nn1-c1c(O)c(C)nn(C)c1=O [Compound 16]
95: Plant response rating, Wheat [6, 16] | Plant response rating, Oat, Wild (wild oat (Avena fatua); [16]) | Plant response rating, Oat, Wild (wild oat (Avena fatua); [21]) | Plant response rating, Canarygrass ([8]; 62 g ai/ha, scale 0 to 100) | Plant response rating, Barley ([11]; 125 g ai/ha, scale 0 to 100)
70: Plant response rating, Corn (corn (Zea mays); [14]) | Plant response rating, Canarygrass [8, 24]
15: Plant response rating, Wheat [6, 20]
100: Plant response rating, Barnyardgrass [1, 13] | Plant response rating, Barnyardgrass [1, 14] | Plant response rating, Barnyardgrass [1, 15] | Plant response rating, Corn (corn (Zea mays); [13]) | Plant response rating, Foxtail, Giant [2, 12] | Plant response rating, Foxtail, Giant [2, 13] | Plant response rating, Foxtail, Giant [2, 14] | Plant response rating, Foxtail, Giant [2, 15] | Plant response rating, Crabgrass, Large [3, 13] | Plant response rating, Crabgrass, Large [3, 15] | Plant response rating, Wheat [6, 18] | Plant response rating, Wheat [6, 19] | Plant response rating, Wheat [6, 23] | Plant response rating, Oat, Wild (wild oat (Avena fatua); [17]) | Plant response rating, Oat, Wild (wild oat (Avena fatua); [18]) | Plant response rating, Oat, Wild (wild oat (Avena fatua); [19]) | Plant response rating, Oat, Wild (wild oat (Avena fatua); [23]) | Plant response rating, Windgrass ([10]; 62 g ai/ha, scale 0 to 100) | Plant response rating, Windgrass ([10]; 125 g ai/ha, scale 0 to 100) | Plant response rating, Windgrass ([10]; 250 g ai/ha, scale 0 to 100)
98: Plant response rating, Wheat [6, 17] | Plant response rating, Wheat [6, 22] | Plant response rating, Oat, Wild (wild oat (Avena fatua); [22]) | Plant response rating, Barley ([11]; 250 g ai/ha, scale 0 to 100)
0: Plant response rating, Morningglory [4, 12] | Plant response rating, Morningglory [4, 13] | Plant response rating, Morningglory [4, 14] | Plant response rating, Morningglory [4, 15] | Plant response rating, Velvetleaf [5, 12] | Plant response rating, Velvetleaf [5, 13] | Plant response rating, Velvetleaf [5, 14] | Plant response rating, Velvetleaf [5, 15] | Plant response rating, Nutsedge, Yellow [7, 16] | Plant response rating, Nutsedge, Yellow [7, 17] | Plant response rating, Nutsedge, Yellow [7, 18] | Plant response rating, Nutsedge, Yellow [7, 19] | Plant response rating, Nutsedge, Yellow [7, 20] | Plant response rating, Nutsedge, Yellow [7, 21] | Plant response rating, Nutsedge, Yellow [7, 22] | Plant response rating, Chickweed [9, 24] | Plant response rating, Chickweed ([9]; 62 g ai/ha, scale 0 to 100) | Plant response rating, Chickweed ([9]; 125 g ai/ha, scale 0 to 100) | Plant response rating, Chickweed ([9]; 250 g ai/ha, scale 0 to 100)
90: Plant response rating, Barnyardgrass [1, 12] | Plant response rating, Corn (corn (Zea mays); [12]) | Plant response rating, Corn (corn (Zea mays); [15]) | Plant response rating, Crabgrass, Large [3, 12] | Plant response rating, Crabgrass, Large [3, 14] | Plant response rating, Wheat [6, 21] | Plant response rating, Oat, Wild (wild oat (Avena fatua); [20]) | Plant response rating, Windgrass [10, 24] | Plant response rating, Barley [11, 24] | Plant response rating, Barley ([11]; 62 g ai/ha, scale 0 to 100)
20: Plant response rating, Nutsedge, Yellow [7, 23]

CCc1cc(-c2ccc(Cl)cc2)nn1-c1c(O)cnn(C)c1=O [Compound 21]
80: Plant response rating, Corn (corn (Zea mays); [12])
10: Canarygrass plant response rating [8, 27]
85: Plant response rating, Wheat [6, 25] | Plant response rating, Wheat [6, 20] | Plant response rating, Oat, Wild (wild oat (Avena fatua); [26])
90: Plant response rating, Corn (corn (Zea mays); [13]) | Plant response rating, Corn (corn (Zea mays); [14]) | Plant response rating, Crabgrass, Large [3, 12] | Plant response rating, Wheat [6, 16] | Plant response rating, Oat, Wild (wild oat (Avena fatua); [20]) | Plant response rating, Canarygrass ([8]; 16 g ai/ha, scale 0 to 100)
95: Plant response rating, Wheat [6, 21] | Plant response rating, Oat, Wild (wild oat (Avena fatua); [21])
0: Plant response rating, Morningglory [4, 12] | Plant response rating, Morningglory [4, 13] | Plant response rating, Morningglory [4, 14] | Plant response rating, Morningglory [4, 15] | Plant response rating, Velvetleaf [5, 12] | Plant response rating, Velvetleaf [5, 13] | Plant response rating, Velvetleaf [5, 14] | Plant response rating, Velvetleaf [5, 15] | Wheat plant response rating ([6]; Preemergence, scale 0 to 100) | Nutsedge, Yellow plant response rating [7, 27] | Plant response rating, Nutsedge, Yellow [7, 25] | Plant response rating, Nutsedge, Yellow [7, 16] | Plant response rating, Nutsedge, Yellow [7, 17] | Plant response rating, Nutsedge, Yellow [7, 26] | Plant response rating, Nutsedge, Yellow [7, 20] | Plant response rating, Nutsedge, Yellow [7, 21] | Chickweed plant response rating [9, 27] | Plant response rating, Chickweed ([9]; 16 g ai/ha, scale 0 to 100) | Plant response rating, Chickweed [9, 24] | Plant response rating, Chickweed ([9]; 62 g ai/ha, scale 0 to 100) | Barley plant response rating [11, 27]
60: Plant response rating, Barley ([11]; 16 g ai/ha, scale 0 to 100, 0 no effect, 100 complete control)
30: Plant response rating, Wheat [6, 26]
98: Oat, Wild plant response rating (wild oat (Avena fatua); postemergence, 0-100 scale) | Plant response rating, Windgrass ([10]; 16 g ai/ha, scale 0 to 100)
50: Wheat plant response rating ([6]; postemergence, 0-100 scale) | Windgrass plant response rating [10, 27]
65: Oat, Wild plant response rating (wild oat (Avena fatua); Preemergence, scale 0 to 100)
100: Plant response rating, Barnyardgrass [1, 12] | Plant response rating, Barnyardgrass [1, 13] | Plant response rating, Barnyardgrass [1, 14] | Plant response rating, Barnyardgrass [1, 15] | Plant response rating, Corn (corn (Zea mays); [15]) | Plant response rating, Foxtail, Giant [2, 12] | Plant response rating, Foxtail, Giant [2, 13] | Plant response rating, Foxtail, Giant [2, 14] | Plant response rating, Foxtail, Giant [2, 15] | Plant response rating, Crabgrass, Large [3, 13] | Plant response rating, Crabgrass, Large [3, 14] | Plant response rating, Crabgrass, Large [3, 15] | Plant response rating, Wheat [6, 17] | Plant response rating, Oat, Wild (wild oat (Avena fatua); [25]) | Plant response rating, Oat, Wild (wild oat (Avena fatua); [16]) | Plant response rating, Oat, Wild (wild oat (Avena fatua); [17]) | Plant response rating, Canarygrass ([8]; 62 g ai/ha, scale 0 to 100) | Plant response rating, Windgrass [10, 24] | Plant response rating, Windgrass ([10]; 62 g ai/ha, scale 0 to 100) | Plant response rating, Barley ([11]; 62 g ai/ha, scale 0 to 100)
